The values that follow come from patent publication US20160038411A1, “PULSATILE GASTRIC RETENTIVE DOSAGE FORMS” (Depomed, Inc., priority 2007, published 2016).

Molecules are shown by their SMILES. Like-named read-outs stand apart in the source and are kept apart here.

The test system of data set [1] is basal acid output. Particulars: 20 mg dose, healthy volunteers and patients, cited from earlier work.
In data set [2] the test system is pH of the stomach. Particulars: cited from earlier work.
Data set [3] has as its system NAB (intra-gastric pH<4 for more than 1 hour between 22:00 and 06:00). The data set can be described thus: Two-period crossover study in GERD patients: ambulatory 24-hour gastric pH, NAB. Type of data set: in vivo, human. The procedure:
Sixteen patients with a history of GERD, all of whom experienced recurrent nighttime reflux for at least three months while taking proton pump inhibitors, were enrolled. The study was an open label crossover study in which 14 of the 16 patients participated in each of two treatment arms separated by a washout period. […] Ambulatory 24-hour gastric pH was recorded and blood samples taken for PK analysis on days 6-7. Following a seven day washout the patients were crossed over to the alternate treatment. NAB was defined as an intra-gastric pH<4 for more than 1 hour between 22:00 hour and 06:00 hour (10:00 PM and 6:00 AM).

Data set [4] can be described thus: Two-period crossover study in GERD patients: plasma omeprazole PK. As to conditions: for AUC: human, plasma, oral, read-out: median AUC (25-75%). Format: in vivo, human. The procedure:
Sixteen patients with a history of GERD, all of whom experienced recurrent nighttime reflux for at least three months while taking proton pump inhibitors, were enrolled. […] Ambulatory 24-hour gastric pH was recorded and blood samples taken for PK analysis on days 6-7. Following a seven day washout the patients were crossed over to the alternate treatment. NAB was defined as an intra-gastric pH<4 for more than 1 hour between 22:00 hour and 06:00 hour (10:00 PM and 6:00 AM).

The conditions of data set [5]: pH 11 phosphate buffer; cited from earlier work.
Data set [6] is described as follows: Four-way crossover pharmacokinetic study of omeprazole (limited colonic absorption). Format: in vivo. Particulars: human, plasma, 20 mg; for AUC: mean±SD. The text has this: Nine healthy subjects were entered into the study with an intention to complete treatment of at least six subjects. […] A period of at least four days for washout was allowed between dosing.

For data set [7], the system named is nocturnal heartburn. As to conditions: cited from earlier work.

In the case of `COc1ccc2[nH]c([S+]([O-])Cc3ncc(C)c(OC)c3C)nc2c1` (stereo not drawn) [omeprazole, 5-methoxy-2-[[(4-methoxy-3,5-dimethyl-2-pyridinyl)methyl]sulfinyl]-1H-benzimidazole], the “decrease in basal acid output” value in data set [1] (2-6 hours after dosing) is listed as 78%; in data set [1] (24 hours after dosing), 50%-80%. Also, the “nighttime pH control of the stomach, time with pH>4” value is reported as 24 % of the time in data set [2] (40 mg before breakfast); 69 % of the time in data set [2] (40 mg before dinner); 80 % of the time in data set [2] (twice-daily (BID) dosing, 20 mg before breakfast and dinner). For the same compound, the “patients who experienced inhibition of NAB” value in data set [3] (20 mg at dinner + 20 mg 4 hours later, the 9 patients with two-dose absorption profile (FIG. 7A)) was 100%. Besides, the “occurrence of NAB” value in data set [3] (40 mg single dose 30 minutes before dinner for six days, 14 patients) was “Three of the patients experienced NAB”; in data set [3] (two dose arm, nine patients who achieved blood levels from both doses), “none experienced NAB”; in data set [3] (two dose arm, the five patients with delayed absorption) it was “All five of those patients experienced NAB”. Further, the “patients who did not start absorbing omeprazole until 4-5 hours after the initial dose” value in data set [4] (20 mg at dinner + 20 mg 4 hours later, of the 14 patients (FIG. 7B)) is given as 36%. Besides, in data set [4] (40 mg single dose arm, the three patients who experienced NAB), the “blood levels of omeprazole between 2:00 and 3:00 AM” value was “undetectable levels”. In data set [4] (five of the 14 patients of the two dose arm (FIG. 7B)), the “time until start of omeprazole absorption after the initial 20 mg dose” value was in the range of 4 to 5 h. Also, the AUC (commonly the area under the concentration-time curve, a measure of exposure) in data set [4] (20 mg at dinner + 20 mg four hours later for six days, all patients, n = 14) came to 1860 ng·h/mL; in data set [4] (20 mg at dinner + 20 mg four hours later, patients with NAB (n = 5)) it was 1670 ng·h/mL; in data set [4] (20 mg at dinner + 20 mg four hours later, patients without NAB (n = 9)), 1910 ng·h/mL; in data set [6] (iv, (iv) 20 mg omeprazole delivered to the ascending colon via ENTERION capsule), 242 ± 323 ng·h/mL; in data set [6] (oral, (i) SCR: 20 mg omeprazole divided into 17 doses at 30 minute intervals (8 hr), fed state, n = 7), 568 ± 727 ng·h/mL; in data set [6] (oral, (ii) 20 mg omeprazole in the fed state, n = 7) it was 849 ± 999 ng·h/mL. Besides, in data set [6] (oral, (iii) 20 mg omeprazole in the fasted state, n = 7), the area under the curve (AUC) amounted to 969 ± 1090 ng·h/mL. Moreover, the “stability at pH 11” value in data set [5] is recorded as “stable at pH 11”. The Tmax (commonly the time from dosing to the highest level) turned out to be 1.8 h in data set [6] (iv, (iv) Colonic); 4.9 h in data set [6] (oral, (i) SCR); 3.7 h in data set [6] (oral, (ii) Fed). Besides, the bioavailability (as a rule, the share of a dose that reaches the circulation, judged against a reference dose that is usually intravenous) in data set [6] (iv, (iv) Colonic, compared to fasted state, read-out: Relative bioavailability) worked out at 22 ± 12%; in data set [6] (oral, 20 mg fed, one of the subjects removed from the analysis, read-out: relative bioavailability in the fed state compared to fasting) it was 96 ± 7%; in data set [6] (oral, (i) SCR, fed state, compared to fasted state, read-out: Relative bioavailability) it was 61 ± 15%; in data set [6] (oral, (ii) Fed, compared to fasted state, read-out: Relative bioavailability), 90 ± 16%; in data set [6] (oral, (iii) Fasted (reference arm), read-out: Relative bioavailability), 100%; in data set [6] (other: ENTERION capsule activated in the terminal ileum, one subject, ENTERION capsule activated in the terminal ileum, read-out: relative bioavailability compared to fasted state), 58%.

As to `COc1ccc2nc([S@@+]([O-])Cc3ncc(C)c(OC)c3C)[nH]c2c1` [esomeprazole], in data set [7], the “GERD patients with relief of nocturnal heartburn” value is 50%.
